{"source": "patent US6534039B2", "about": "“Extended organic cobalt and nickel magnetic complexes” (priority 2000, dated 2003)", "key": {"[1]": {"system": "brain tumor (N32 and F98)", "test": "MRI of brain tumors in rats with contrast agent", "format": "in vivo, rat", "source_text": "Rats were implanted with tumors by stereotactic infusion of tumor cells into the brain.\nVarious MRI imaging modes were used in the analysis: T1-weighted, T2-weighted, and T2*-weighted.\nRats weighing about 350 g, seeded with either F98 or N32 cells were used for tumor imaging. A<0.5 mm burr hole was drilled through the skull of the anesthetized rats at the point of inoculation. Tumors were initiated by inoculating one microliter of culture medium, containing 10,000 cultured cells, 4-5 mm deep into the left striatum, at a point 4 mm to the left of the midline in the (serrated) coronal suture. A 27-gauge needle fitted with a depth-limiting plastic collar to ensure cell injection 4-5 mm beneath the skull was connected to a Hamilton microsyringe via flexible tubing. Following a 30-second infusion of the cells, another 30 seconds was taken to allow the cells to settle before removing the needle. For F98 tumor animals, death ensued 24+ days after inoculation.\nMRI was performed at day 16 after tumor cell implantation. […] The rats were immediately positioned on a support and MRI was performed in a 1.5 tesla whole-body clinical scanner (Siemens Vision, Germany) with a human extremity (knee) coil. High-resolution turbo spin-echo sagittal imaging was used for selecting slice position with imaging parameters as follows. […]"}, "regions of wound healing": {"system": "regions of wound healing", "test": "Wound healing delineation by MRI", "format": "in vivo, rat", "details": "site opened two weeks prior for injecting tumor cells", "description": "MRI was performed at day 16 after tumor cell implantation. The animals were anesthetized and injected interperitoneally with either 200 microliters of gadodiamide (287 mg gadodiamide/ml) (Omniscan, Nycomed, Princeton, N.J.) or 200 microliters of the extended cobalt complex (containing 10 mg Co/ml ±30%). The rats were immediately positioned on a support and MRI was performed in a 1.5 tesla whole-body clinical scanner (Siemens Vision, Germany) with a human extremity (knee) coil. High-resolution turbo spin-echo sagittal imaging was used for selecting slice position with imaging parameters as follows. For T2 weighted images: repetition time (TR)=3000 msec; echo time (TE)=25 msec; field of view (FOV)=100×100 mm; matrix size=256×256; image slice thickness (TH)=2 mm. Tumor images were collected at various times after a single interperitoneal injection. Imaging times were 3 min/scan and resolution was […]. Imaging covered a 30 min period after injection.\nThis is surprising as the vasculature and components of a wounded region differ from normal tissue only subtly, and these differences are not highlighted by the gadodiamide reagent. This type of imaging can be used to detect internal damage, internal bleeding, or other forms of lesions with MRI using the cobalt complex as contrast agent.\nMethods were performed as in Example 8."}, "[2]": {"details": "rat, in vivo, ip"}}}
{"smiles": "CNC(=O)CN(CCN(CCN(CC(=O)[O-])CC(=O)NC)CC(=O)[O-])CC(=O)[O-].[Gd+3]", "note": "[gadodiamide]", "values": [{"measurement": "tumor visibility in all MRI imaging modes", "setting": "[1]; T1-weighted, T2-weighted and T2*-weighted", "value": "no trace of any tumors was evident"}, {"measurement": "enhancement / imaging of brain tumor by MRI", "setting": "[1]; rats with N32 or F98 tumor, 200 microliters interperitoneally, 1.5 tesla", "value": "No enhancement"}, {"measurement": "image contrast at wound site by MRI", "setting": "regions of wound healing", "value": "No such contrast was evident"}, {"measurement": "ALBm (albumen)", "setting": "[2]", "value": 1.5, "unit": "g/dL"}, {"measurement": "ALP (alkaline phosphatase)", "setting": "[2]", "value": 202, "unit": "IU/L"}, {"measurement": "ALT (alanine transaminase)", "setting": "[2]", "value": 62, "unit": "IU/L"}, {"measurement": "AST (aspartate transaminase)", "setting": "[2]", "value": 183, "unit": "IU/L"}, {"measurement": "BUNm (blood urea nitrogen)", "setting": "[2]", "value": 16, "unit": "mg/dL"}, {"measurement": "CK (creatine kinase)", "setting": "[2]", "value": 820, "unit": "IU/L"}, {"measurement": "CL (chloride)", "setting": "[2]", "value": 101, "unit": "mEq/L"}, {"measurement": "CO2 (carbon dioxide)", "setting": "[2]", "value": 30, "unit": "mEq/L"}, {"measurement": "GLUCm (glucose)", "setting": "[2]", "value": 177, "unit": "mg/dL"}, {"measurement": "K (potassium)", "setting": "[2]", "value": 5.5, "unit": "mEq/L"}, {"measurement": "NA (sodium)", "setting": "[2]", "value": 139, "unit": "mEq/L"}, {"measurement": "liver enzyme activity compared to the control", "setting": "[2]", "value": "slight increase"}]}
